Test results published in paper PMC10502087, “Fatty acid binding proteins are novel modulators of synaptic epoxyeicosatrienoic acid signaling in the brain” (Scientific Reports, 2023).
Read-outs that look alike come from different tables or passages of the source.

What was measured:
[1] = test system: CA1 pyramidal neuron glutamate synapses; assay: Ex vivo whole-cell recordings of evoked EPSCs in hippocampal slices; type: cell-based, C57Bl/6 mice
Description: Mice were deeply anesthetized with isoflurane and decapitated. Coronal brain slices (350 μm thick) containing the hippocampus were cut using a vibratome Leica VT 1200 (Leica, CA) in a modified ice-cold […] artificial cerebrospinal fluid (ACSF) composed in mM: 110 mM choline-Cl, 2.5 mM KCl, 0.5 mM CaCl2, 7 mM MgSO4, 1.25 mM NaH2PO4, 26.2 mM NaHCO3, 11.6 mM sodium L-ascorbate, 3.1 mM sodium pyruvate, and 25 mM glucose, and equilibrated with 95% O2 and 5% CO2. Hippocampal slices were first transferred to a chamber with the same cutting solution at 35 °C for 15 min and then to a standard ACSF in mM: 119 mM NaCl, 2.5 mM CaCl2, 1.3 mM MgSO4, 1 mM NaH2PO4, 26.2 mM NaHCO3, and 11 mM glucose continuously bubbled with a mixture of 95% O2 and 5% CO2 for additional 45 min at 35 °C. Slices were allowed to recover at room temperature (≥ 1 h). After recovery, individual slice was transferred to a recording chamber, continuously perfused with standard ACSF containing 0.01% DMSO saturated with 95% O2 and 5% CO2, and warmed at 30 °C.
Hippocampal CA1 pyramidal neurons were visualized using an upright microscope (BX 51 WI; Olympus, Tokyo, Japan) and somatic whole-cell recordings were obtained from pyramidal neurons using glass pipette electrodes with 3–5 MΩ resistance when filled with an internal solution containing: 120 mM potassium gluconate, 10 mM KCl, 10 mM Na2-phosphocreatine, 10 mM HEPES, 1 mM MgCl2, 1 mM EGTA, 2 mM Na2-ATP, 0.25 mM Na-GTP (pH 7.3 adjusted with KOH; osmolarity, 280–290 mOsmol/l). All recordings were performed in the presence of the GABA A receptor antagonist picrotoxin (100 μM). Excitatory postsynaptic currents (EPSCs) were evoked with electrical pulses (5–20 V, 100–200 μs) delivered at 0.1 Hz using glass microelectrode placed in the […] in CA1 pyramidal neurons voltage-clamped at − 70 mV. All recorded currents were amplified with an a Multiclamp 700B amplifier (Molecular Devices, Sunnyvale, CA), filtered at 3 kHz, digitized at 20 kHz with Digidata 1200 (Molecular Devices), and acquired using the pClamp 10.7 software (Molecular Devices, Sunnyvale, CA). To examine the impact of TPPU on the amplitude of evoked EPSCs, at least 10–20 min of stable baseline recordings were obtained and TPPU was perfused to the brain slices (final DMSO concentration of 0.01%).
For the analysis of the electrophysiology data, the amplitude of evoked EPSCs (eEPSC) was determined by measuring the average current during a 2-ms period at the peak of each eEPSC and subtracted from the average baseline current determined during a 5-ms window taken before the stimulus artifact. All eEPSC amplitudes were normalized to the mean baseline amplitude recorded for at least 10 min before drug application. All the data are represented as the mean ± SE and were not transformed.

[2] = target: T1, FABP5 (Homo sapiens, UniProt Q01469); assay: Fluorescent probe (DAUDA) displacement from purified FABP5; type: binding
Description: We first examined the binding of EETs (Fig. 1) to purified FABP3, FABP5, and FABP7 via fluorescent probe displacement assays as previously described[30],[31].
Affinities of each ligand were determined via fluorescent probe displacement from purified FABPs as previously described[30],[31],[47]. Ligands were incubated in assay buffer (30 mM Tris, 100 mM NaCl, pH 7.5) containing 3 μM purified FABPs, 500 nM DAUDA (for FABP3 and FABP5) or ANS (for FABP7). AA (10 μM) was included to account for maximal probe displacement.

[3] = target: FABP3 (Homo sapiens, UniProt P05413); assay: Fluorescent probe (DAUDA) displacement from purified FABP3; type: binding
Text: (§1) We first examined the binding of EETs (Fig. 1) to purified FABP3, FABP5, and FABP7 via fluorescent probe displacement assays as previously described[30],[31]. 5,6-EET, 8,9-EET, 11,12-EET, and 14,15-EET bound to all three FABPs with distinct selectivity. […] Similarly, 11,12-EET emerged as the preferred ligand for FABP5 followed by 8,9-EET, 5,6-EET, and 14,15-EET (Fig. 2A, Table 1). For FABP7, 11,12-EET bound with highest affinity while interactions of the remaining EETs were considerably weaker.
(§2) Affinities of each ligand were determined via fluorescent probe displacement from purified FABPs as previously described[30],[31],[47]. Ligands were incubated in assay buffer (30 mM Tris, 100 mM NaCl, pH 7.5) containing 3 μM purified FABPs, 500 nM DAUDA (for FABP3 and FABP5) or ANS (for FABP7). AA (10 μM) was included to account for maximal probe displacement. The fluorescence signal was quantified on a F5 Filtermax Multi-Mode Microplate Reader (Molecular Devices) with the excitation and emission wavelengths set at 360/535 nm for DAUDA and 360/465 nm for ANS. After background subtraction, normalized fluorescence values were fit to a one-site binding model using GraphPad Prism (v 9.5) and Ki values were determined using the following equation: Ki = IC50/(1 + ([Probe]/Kd).

[4] = target: T2, FABP7 (Homo sapiens, UniProt O15540); assay: Fluorescent probe (ANS) displacement from purified FABP7; type: binding
Text: as §1, §2

[5] = test system: CA1 pyramidal neuron glutamate synapses; design: method as in PMID 28526610, PMID 29138698; settings: previous studies; cited from earlier work
[6] = target: T2, FABP7; design: method as in PMID 8798739, PMID 8608126; settings: cited from earlier work
[7] = target: T1, FABP5; design: method as in PMID 8798739, PMID 8608126; settings: cited from earlier work
[8] = mean ± S.E., n = 4, Table 1, read-out: Ki FABP5

T1 sequence (Q01469 whole entry): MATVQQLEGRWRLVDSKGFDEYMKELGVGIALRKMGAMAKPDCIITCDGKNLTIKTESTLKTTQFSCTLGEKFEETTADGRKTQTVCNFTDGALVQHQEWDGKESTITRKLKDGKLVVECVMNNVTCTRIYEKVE
Chain of FABP3 (P05413 whole entry): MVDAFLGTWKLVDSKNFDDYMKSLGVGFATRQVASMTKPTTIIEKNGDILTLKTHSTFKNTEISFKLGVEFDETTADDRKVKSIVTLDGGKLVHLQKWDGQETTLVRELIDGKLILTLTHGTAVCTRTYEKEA
T2 sequence (O15540 whole entry): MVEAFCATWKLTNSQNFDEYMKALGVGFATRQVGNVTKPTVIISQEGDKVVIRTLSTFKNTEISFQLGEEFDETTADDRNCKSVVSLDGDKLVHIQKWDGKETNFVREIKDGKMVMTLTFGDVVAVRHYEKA

Ki [2, 8] [µM] | Ki ([3]; mean ± S.E., n = 4, Table 1) [µM] | Ki ([4]; mean ± S.E., n = 4, Table 1) [µM] | SMILES | further results
– | – | – | CCC(=O)N1CCC(NC(=O)Nc2ccc(OC(F)(F)F)cc2)CC1 [TPPU] | CA1 pyramidal neurons showing depression of eEPSC amplitude ([1]; TPPU 10 µM): 41%; CA1 pyramidal neurons showing potentiation of eEPSC amplitude ([1]; TPPU 10 µM): 47%; Coefficient of variation (CV) during depression of EPSCs ([1]; TPPU 10 µM vs baseline, n = 5, p = 0.086): not accompanied with significant changes; Paired pulse ratio (PPR) during depression of EPSCs ([1]; TPPU 10 µM vs baseline, n = 5, p = 0.108): not accompanied with significant changes; Coefficient of variation (CV) during potentiation of eEPSCs ([1]; TPPU 10 µM vs baseline, n = 7, p = 0.0017): significant decrease; Paired pulse ratio (PPR) during potentiation of eEPSCs ([1]; TPPU 10 µM vs baseline, n = 7, p = 0.042): significant decrease
> 50 | > 50 | > 50 | CCCCCC(O)C=CC1C(O)CC(O)C1CC=CCCCC(=O)NCCO (stereo not drawn) [PGF2α-EA, prostamide F2α] | –
> 50 | > 50 | > 50 | CCCCCC(O)C=CC1C(O)CC(=O)C1CC=CCCCC(=O)OCC(O)CO (stereo not shown) [PGE2-GE, prostaglandin E2 glyceryl ester] | –
3.2 ± 0.19 | 1.37 ± 0.12 | > 50 | CCCCCCCC/C=C\CCCCCCCC(=O)OC[C@H](O)COP(=O)(O)O [LPA, oleoyl lysophosphatidic acid] | –
3.57 ± 0.28 | 1.44 ± 0.12 | 4.3 ± 0.29 | CCCCC/C=C\C/C=C\C/C=C\C[C@H]1O[C@H]1CCCC(=O)O [5,6-EET] | –
– | – | – | O=C(O)C1[C@H](c2ccccc2)C(C(=O)Oc2cccc3ccccc23)[C@H]1c1ccccc1 (stereo partly shown) [SBFI-26] | Effect on TPPU-induced potentiation of eEPSCs ([1]; inhibitor 10 µM with TPPU 10 µM, hippocampal slices): significantly reduced; Ki ([3]; inhibitors, Table 3): 2.7 ± 0.42 µM; Ki ([4]; inhibitors, Table 3): 0.45 ± 0.07 µM
0.52 ± 0.07 | 0.2 ± 0.03 | 1.13 ± 0.11 | CCCCC/C=C\C[C@H]1O[C@H]1C/C=C\C/C=C\CCCC(=O)O [11,12-EET] | Effect on hippocampal glutamate synapses [5]: depresses
> 50 | > 50 | > 50 | CCCCC[C@H](O)/C=C/[C@H]1[C@H](O)CC(=O)[C@@H]1C/C=C\CCCC(=O)O [PGE2, prostaglandin E2] | Affinity for FABP7 [6]: does not display appreciable affinity; Affinity for FABP5 [7]: does not display appreciable affinity
– | 1.22 ± 0.14 | 29.9 ± 5.64 | CCCCCC=CC=C1C(=O)C=CC1CC=CCCCC(=O)O (stereo not shown) [15d-PGJ2, 15-deoxy-Δ^12,14-Prostaglandin J2] | Ki [2]: 12.3 ± 1.54 µM
5.56 ± 0.48 | 0.65 ± 0.08 | 3.74 ± 0.12 | CCCCC[C@H]1O[C@H]1C/C=C\C/C=C\C/C=C\CCCC(=O)O [14,15-EET] | Effect on hippocampal glutamate synapses [5]: potentiates
1.87 ± 0.21 | 0.17 ± 0.02 | 3.16 ± 0.3 | CCCCC/C=C\C/C=C\C[C@H]1O[C@H]1C/C=C\CCCC(=O)O [8,9-EET] | –
> 50 | > 50 | > 50 | CCCCC[C@H](O)/C=C/[C@@H]1[C@@H](C/C=C\CCCC(=O)O)[C@@H](O)C[C@H]1O [PGF2α] | –
